# In patent publication EP4692090A1 (Shanghai Fosun Pharmaceutical (Group) Co., Ltd., priority 2023, dated 2024):
# Read-outs that look alike come from different tables or passages of the source.
# Key:
# ATR kinase = biological target: T1, ATR kinase (Homo sapiens, UniProt Q13535); test: Inhibitory effect on ATR kinase activity (Caliper mobility shift, FAM-labeled RAD17 peptide substrate); assay type: biochemical; details: 1 nM ATR kinase (Eurofins), 28°C for 3 hours, maximum concentration 1 µM, 10 concentrations
# T1 construct: purchased Eurofins 14-953
# T1 sequence (Q13535 whole entry): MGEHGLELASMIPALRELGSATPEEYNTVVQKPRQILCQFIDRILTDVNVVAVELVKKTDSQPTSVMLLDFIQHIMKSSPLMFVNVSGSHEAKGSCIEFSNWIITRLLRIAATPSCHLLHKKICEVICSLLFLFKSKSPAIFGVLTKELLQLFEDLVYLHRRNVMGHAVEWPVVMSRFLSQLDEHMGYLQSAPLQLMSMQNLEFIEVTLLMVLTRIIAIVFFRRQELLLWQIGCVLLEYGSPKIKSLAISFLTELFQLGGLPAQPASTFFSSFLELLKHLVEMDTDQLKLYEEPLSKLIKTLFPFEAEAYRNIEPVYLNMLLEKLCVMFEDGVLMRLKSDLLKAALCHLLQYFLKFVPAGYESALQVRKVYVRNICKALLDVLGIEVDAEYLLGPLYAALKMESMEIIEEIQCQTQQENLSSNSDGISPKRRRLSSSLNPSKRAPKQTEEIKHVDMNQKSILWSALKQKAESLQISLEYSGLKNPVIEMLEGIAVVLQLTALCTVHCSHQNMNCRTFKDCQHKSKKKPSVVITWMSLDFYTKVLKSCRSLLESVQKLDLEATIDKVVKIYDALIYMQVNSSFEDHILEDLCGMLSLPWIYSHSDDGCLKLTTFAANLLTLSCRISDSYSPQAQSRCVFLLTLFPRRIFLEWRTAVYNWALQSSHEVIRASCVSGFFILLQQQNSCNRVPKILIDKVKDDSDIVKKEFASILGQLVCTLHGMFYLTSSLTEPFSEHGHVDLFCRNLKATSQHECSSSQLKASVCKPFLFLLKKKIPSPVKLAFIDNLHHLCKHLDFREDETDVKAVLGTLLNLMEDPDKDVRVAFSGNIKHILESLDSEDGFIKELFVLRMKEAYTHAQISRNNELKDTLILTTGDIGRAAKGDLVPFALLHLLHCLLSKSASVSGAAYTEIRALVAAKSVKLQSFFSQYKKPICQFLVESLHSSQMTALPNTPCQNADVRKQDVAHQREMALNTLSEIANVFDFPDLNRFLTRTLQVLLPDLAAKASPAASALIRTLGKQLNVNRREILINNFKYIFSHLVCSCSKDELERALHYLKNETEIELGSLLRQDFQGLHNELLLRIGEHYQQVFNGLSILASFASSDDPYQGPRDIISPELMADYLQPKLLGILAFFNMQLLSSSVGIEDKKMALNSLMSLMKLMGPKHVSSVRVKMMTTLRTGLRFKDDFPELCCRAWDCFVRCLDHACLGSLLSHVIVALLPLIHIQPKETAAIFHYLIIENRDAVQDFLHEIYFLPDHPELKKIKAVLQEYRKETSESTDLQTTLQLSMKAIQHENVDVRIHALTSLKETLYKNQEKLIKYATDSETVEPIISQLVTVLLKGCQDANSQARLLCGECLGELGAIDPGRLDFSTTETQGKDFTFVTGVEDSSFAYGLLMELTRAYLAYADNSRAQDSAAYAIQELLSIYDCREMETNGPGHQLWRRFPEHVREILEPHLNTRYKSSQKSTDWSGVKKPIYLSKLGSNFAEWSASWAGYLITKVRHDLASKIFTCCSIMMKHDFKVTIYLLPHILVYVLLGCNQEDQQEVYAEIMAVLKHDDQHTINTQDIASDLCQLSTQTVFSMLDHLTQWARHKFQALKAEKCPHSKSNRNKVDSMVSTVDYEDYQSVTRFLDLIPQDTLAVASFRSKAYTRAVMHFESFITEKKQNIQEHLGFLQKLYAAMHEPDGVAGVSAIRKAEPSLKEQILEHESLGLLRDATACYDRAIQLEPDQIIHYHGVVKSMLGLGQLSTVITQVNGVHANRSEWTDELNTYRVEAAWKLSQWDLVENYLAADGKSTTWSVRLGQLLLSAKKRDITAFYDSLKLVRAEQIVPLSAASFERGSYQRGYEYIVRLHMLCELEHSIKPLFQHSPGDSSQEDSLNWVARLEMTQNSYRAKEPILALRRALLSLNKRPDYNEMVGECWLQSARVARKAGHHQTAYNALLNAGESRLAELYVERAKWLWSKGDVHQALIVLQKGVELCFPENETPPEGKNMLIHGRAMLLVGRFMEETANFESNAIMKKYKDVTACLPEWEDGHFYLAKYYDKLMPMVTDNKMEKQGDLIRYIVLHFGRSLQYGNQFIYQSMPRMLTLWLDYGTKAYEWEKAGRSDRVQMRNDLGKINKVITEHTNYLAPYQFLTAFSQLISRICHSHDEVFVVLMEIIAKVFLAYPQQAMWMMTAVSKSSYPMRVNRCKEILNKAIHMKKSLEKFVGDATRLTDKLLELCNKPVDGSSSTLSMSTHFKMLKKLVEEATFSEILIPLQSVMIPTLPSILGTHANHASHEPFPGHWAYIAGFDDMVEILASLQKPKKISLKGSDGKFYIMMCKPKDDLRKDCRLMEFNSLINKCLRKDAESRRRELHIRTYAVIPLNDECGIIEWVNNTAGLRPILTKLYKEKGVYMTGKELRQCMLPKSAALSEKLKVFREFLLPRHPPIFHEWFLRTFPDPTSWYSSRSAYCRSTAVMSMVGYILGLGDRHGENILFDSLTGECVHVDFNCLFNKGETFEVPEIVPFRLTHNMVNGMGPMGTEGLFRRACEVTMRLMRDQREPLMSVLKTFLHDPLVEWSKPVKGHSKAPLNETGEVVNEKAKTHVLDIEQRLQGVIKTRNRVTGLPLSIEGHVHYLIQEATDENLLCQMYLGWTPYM
# T1 sequence (Q8WXE1 whole entry partner): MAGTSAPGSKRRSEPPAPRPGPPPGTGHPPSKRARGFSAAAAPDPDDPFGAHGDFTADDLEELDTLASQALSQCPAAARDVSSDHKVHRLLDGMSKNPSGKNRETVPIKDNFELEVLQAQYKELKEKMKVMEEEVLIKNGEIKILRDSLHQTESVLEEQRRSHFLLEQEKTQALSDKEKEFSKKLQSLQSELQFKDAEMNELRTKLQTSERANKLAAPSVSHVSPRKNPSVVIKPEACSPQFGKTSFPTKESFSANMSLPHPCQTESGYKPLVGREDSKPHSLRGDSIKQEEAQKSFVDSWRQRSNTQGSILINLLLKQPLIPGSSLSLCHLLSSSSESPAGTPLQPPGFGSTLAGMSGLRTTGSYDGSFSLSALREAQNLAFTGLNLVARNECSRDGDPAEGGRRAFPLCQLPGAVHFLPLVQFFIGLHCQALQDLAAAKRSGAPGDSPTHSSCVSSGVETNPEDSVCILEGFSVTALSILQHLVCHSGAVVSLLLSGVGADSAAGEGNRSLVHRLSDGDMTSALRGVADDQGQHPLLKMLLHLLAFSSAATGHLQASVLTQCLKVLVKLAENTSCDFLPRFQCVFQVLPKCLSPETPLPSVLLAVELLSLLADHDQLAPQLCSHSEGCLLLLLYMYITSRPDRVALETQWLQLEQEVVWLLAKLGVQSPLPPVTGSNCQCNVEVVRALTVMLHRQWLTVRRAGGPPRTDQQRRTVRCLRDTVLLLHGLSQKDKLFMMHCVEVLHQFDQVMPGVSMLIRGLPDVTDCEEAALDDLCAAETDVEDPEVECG
# Description: Test Example 1: Inhibitory effect of the compounds of the present disclosure on ATR kinase activity
# Test compounds to be tested were serially diluted with DMSO (maximum concentration 1 µM, 10 concentrations with 3-fold serial dilution) and added to the wells of a 384-well reaction plate (Corning, #4512). 1 nM ATR kinase (Eurofins, #14-953), 5 mM substrate (FAM-labeled RAD17 peptide, FAM-ASELPASQPQPFSAKKK), 5 mM ATP and the compounds with corresponding concentrations reacted in a kinase reaction solution (50 mM HEPES, pH 7.5; 0.0015% Brij-35; 10 mM MnCl2, total volume of 20 µL) at 28°C for 3 hours. The reaction was terminated by adding 30 µL of stop solution (100 mM HEPES, pH 7.5; 0.015% Brij-35; 0.2% Coating Reagent #3, PerkinElmer; 50 mM EDTA). The reaction plate was placed on a Caliper instrument (PerkinElmer) for testing. The relative inhibitory activity of each compound concentration group was calculated using the following formula: % Inhibition = (Conversion rate of the blank control group without compound added - Conversion rate of the test compound group) / (Conversion rate of the blank control group - […]). The IC50 values were calculated using GraphPad analysis and fitted. […] Table 1. Inhibitory effect (IC50) of compounds on ATR kinase activity.
# LoVo cells = test: LoVo cell proliferation assay (CellTiter-Glo); assay type: cell-based; details: maximum concentration 10 µM, 9 concentrations
# Description: Test Example 2: LoVo cell proliferation assay
# LoVo (ATCC, #CRL-229) cells in logarithmic growth phase were digested, counted, and plated into 96-well cell culture plates at 2,000 cells per well. The plates containing cells were incubated overnight at 37°C in a 5% CO2 incubator, and then test compounds with 3-fold gradient dilutions (maximum concentration: 10 µM, 9 concentrations) were added. DMSO was used as a blank control. After the LoVo cells containing the compounds or DMSO were incubated for an additional 5 days, an equal volume of CellTiter-Glo reagent (Promega, #7573) was added. After incubation at room temperature for 30 minutes, chemiluminescence was read using an Envision 2105 (PerkinElmer). The cell proliferation inhibition rate (%) for wells treated with each concentration of the compounds was calculated using the following formula. Then, with compound concentration as the horizontal axis and cell proliferation inhibition rate (%) as the vertical axis, GraphPad software was used to plot the data and determine the IC50 values of the test compounds. The results are shown in Table 2, wherein the IC50 ranges are defined as follows: A: ≤ 100 nM; 1000 nM ≥ B > 100 nM; C > 1000 nM.
# Cell proliferation inhibition (%) = (1 - luminescence value of compound-treated group / average luminescence value of DMSO blank control group) × 100. Table 2. Inhibitory effect of compounds on LoVo growth
# [1] = Homo sapiens, LoVo, 120 h, LoVo cells, 2,000 cells per well, 5 days incubation, CellTiter-Glo, read-out: LoVo IC50
# [2] = LoVo cells, 2,000 cells per well, 5 days incubation, CellTiter-Glo, read-out: LoVo IC50
Structure (SMILES),IC50 (ATR kinase; read-out: ATR kinase IC50) [nM],IC50 (LoVo cells; [1]) [nM],IC50 (LoVo cells; [2]) [nM],IC50 (ATR kinase; ATR kinase IC50 (nM)) [nM],"IC50 (LoVo cells; Homo sapiens, LoVo, 120 h, read-out: LoVo IC50 (nM), LoVo cells, 2,000 cells per well, 5 days incubation, CellTiter-Glo) [nM]"
"C[C@@H]1COCCN1c1cc2c3c(nn(-c4cc[nH]n4)c3n1)CCN(S(C)(=O)=O)C2C1CC1 (single isomer, unassigned) [Compound 138A]",< 10,100 to 1000,–,–,–
"C[C@@H]1COCCN1c1cc2c3c(nn(-c4cc[nH]n4)c3n1)CCN(S(C)(=O)=O)C2C1CC1 (single isomer, unassigned) [Compound 138B]",< 10,–,< 100,–,–
"CC(C)C1c2cc(N3CCOC[C@H]3C)nc3c2c(nn3-c2cc[nH]n2)CCN1C (single isomer, unassigned) [Compound 141A]",< 10,< 100,–,–,–
"CC(C)C1c2cc(N3CCOC[C@H]3C)nc3c2c(nn3-c2cc[nH]n2)CCN1C (single isomer, unassigned) [Compound 141B]",< 10,–,< 100,–,–
"C[C@@H]1COCCN1c1cc2c3c(nn(-c4cc[nH]n4)c3n1)CCN(C)C2C1CC1 (single isomer, unassigned) [Compound 142A]",< 10,< 100,–,–,–
"C[C@@H]1COCCN1c1cc2c3c(nn(-c4cc[nH]n4)c3n1)CCN(C)C2C1CC1 (single isomer, unassigned) [Compound 142B]",< 10,–,< 100,–,–
"CCC1c2cc(N3CCOC[C@H]3C)nc3c2c(nn3-c2cc[nH]n2)CCN1S(C)(=O)=O (single isomer, unassigned) [Compound 144A]",< 10,100 to 1000,–,–,–
"C[C@@H]1COCCN1c1cc2c3c(nn(-c4cc[nH]n4)c3n1)CCNC2 [Compound 1, (R)-4-(2-(1H-pyrazol-3-yl)-6,7,8,9-tetrahydro-2H-1,2,3,7-tetraazabenzo[cd]azulen-4-yl)-3-methylmorpholine]",–,–,–,100 to 1000,100 to 1000
CC(C)N1CCc2nn(-c3cc[nH]n3)c3nc(N4CCOC[C@H]4C)cc(c23)C1 [Compound 2],10 to 100,100 to 1000,–,–,–
"C[C@@H]1COCCN1c1cc2c3c(nn(-c4cc[nH]n4)c3n1)CCN(C1CCOCC1)C2 [Compound 3, (R)-4-(2-(1H-pyrazol-3-yl)-7-(tetrahydro-2H-pyran-4-yl)-6,7,8,9-tetrahydro-2H-1,2,3,7-tetraazabenzo[cd]azulen-4-yl)-3-methylmorpholine]",10 to 100,100 to 1000,–,–,–
"C[C@@H]1COCCN1c1cc2c3c(nn(-c4cc[nH]n4)c3n1)CCN(C1CCOC1)C2 (stereo partly drawn) [Compound 4, (3R)-4-(2-(1H-pyrazol-3-yl)-7-(tetrahydrofuran-3-yl)-6,7,8,9-tetrahydro-2H-1,2,3,7-tetraazabenzo[cd]azulen-4-yl)-3-methylmorpholine]",10 to 100,100 to 1000,–,–,–
CC(=O)N1CCc2nn(-c3cc[nH]n3)c3nc(N4CCOC[C@H]4C)cc(c23)C1 [Compound 5],10 to 100,100 to 1000,–,–,–
"C[C@@H]1COCCN1c1cc2c3c(nn(-c4cc[nH]n4)c3n1)CCN(C1CC3CCC(C1)O3)C2 (stereo partly drawn) [Compound 6, (3R)-4-(7-(8-oxabicyclo[3.2.1]octan-3-yl)-2-(1H-pyrazol-3-yl)-6,7,8,9-tetrahydro-2H-1,2,3,7-tetraazabenzo[cd]azulen-4-yl)-3-methylmorpholine]",100 to 1000,100 to 1000,–,–,–
"C[C@@H]1COCCN1c1cc2c3c(nn(-c4cc[nH]n4)c3n1)CCN(C1CC(F)(F)C1)C2 [Compound 7, (R)-4-(7-(3,3-difluorocyclobutyl)-2-(1H-pyrazol-3-yl)-6,7,8,9-tetrahydro-2H-1,2,3,7-tetraazabenzo[cd]azulen-4-yl)-3-methylmorpholine]",10 to 100,100 to 1000,–,–,–
"C[C@@H]1COCCN1c1cc2c3c(nn(-c4cc[nH]n4)c3n1)CCN(C1COC1)C2 [Compound 8, (R)-3-Methyl-4-(7-(oxetan-3-yl)-2-(1H-pyrazol-3-yl)-6,7,8,9-tetrahydro-2H-1,2,3,7-tetraazabenzo[cd]azulen-4-yl)morpholine]",10 to 100,100 to 1000,–,–,–
"C[C@@H]1COCCN1c1cc2c3c(nn(-c4cc[nH]n4)c3n1)CCN(C(=O)C1CC(F)(F)C1)C2 [Compound 9, (R)-(3,3-difluorocyclobutyl)(4-(3-methylmorpholino)-2-(1H-pyrazol-3-yl)-2,6,8,9-tetrahydro-7H-1,2,3,7-tetraazabenzo[cd]azulene-7-yl)methanone]",10 to 100,> 1000,–,–,–
"C[C@@H]1COCCN1c1cc2c3c(nn(-c4cc[nH]n4)c3n1)CCN(C(=O)CC(F)(F)F)C2 [Compound 10, (R)-3,3,3-trifluoro-1-(4-(3-methylmorpholino)-2-(1H-pyrazol-3-yl)-2,6,8,9-tetrahydro-7H-1,2,3,7-tetraazabenzo[cd]azulen-7-yl)propan-1-one]",10 to 100,> 1000,–,–,–
C[C@@H]1COCCN1c1cc2c3c(nn(-c4cc[nH]n4)c3n1)CCN(C1CC3(CC3)C1)C2 [Compound 11],10 to 100,100 to 1000,–,–,–
"CC1COCC1N1CCc2nn(-c3cc[nH]n3)c3nc(N4CCOC[C@H]4C)cc(c23)C1 (stereo partly drawn) [Compound 12, (3R)-3-methyl-4-(7-(4-methyltetrahydrofuran-3-yl)-2-(1H-pyrazol-3-yl)-6,7,8,9-tetrahydro-2H-1 ,2,3,7-tetraazabenzo[cd]azulen-4-yl)morpholine]",10 to 100,100 to 1000,–,–,–
"C[C@@H]1COCCN1c1cc2c3c(nn(-c4cc[nH]n4)c3n1)CCN(CC(F)(F)F)C2 [Compound 14, (R)-4-(2-(1H-pyrazol-3-yl)-7-(2,2,2-trifluoroethyl)-6,7,8,9-tetrahydro-2H-1,2,3,7-tetraazabenzo[cd]azulen-4-yl)-3-methylmorpholine]",10 to 100,100 to 1000,–,–,–
"CC1CC(C(=O)N2CCc3nn(-c4cc[nH]n4)c4nc(N5CCOC[C@H]5C)cc(c34)C2)C1 (stereo partly drawn) [Compound 15, (R)-(3-methylcyclobutyl)(4-(3-methylmorpholino)-2-(1H-pyrazol-3-yl)-2,6,8,9-tetrahydro-7H-1,2,3,7-tetraazabenzo[cd]azulene-7-yl)methanone]",10 to 100,100 to 1000,–,–,–

# Further lines, with some results ahead:
IC50 (ATR kinase; read-out: ATR kinase IC50) [nM],IC50 (LoVo cells; [1]) [nM],IC50 (LoVo cells; [2]) [nM],Structure (SMILES),IC50 (ATR kinase; ATR kinase IC50 (nM)) [nM],"IC50 (LoVo cells; Homo sapiens, LoVo, 120 h, read-out: LoVo IC50 (nM), LoVo cells, 2,000 cells per well, 5 days incubation, CellTiter-Glo) [nM]"
< 10,–,< 100,"CCC1c2cc(N3CCOC[C@H]3C)nc3c2c(nn3-c2cc[nH]n2)CCN1S(C)(=O)=O (single isomer, unassigned) [Compound 144B]",–,–
10 to 100,100 to 1000,–,"CCC1c2cc(N3CCOC[C@H]3C)nc3c2c(nn3-c2cc[nH]n2)CCN1S(=O)(=O)C1CC1 (single isomer, unassigned) [Compound 145A]",–,–
< 10,–,100 to 1000,"CCC1c2cc(N3CCOC[C@H]3C)nc3c2c(nn3-c2cc[nH]n2)CCN1S(=O)(=O)C1CC1 (single isomer, unassigned) [Compound 145B]",–,–
< 10,< 100,–,"CC1c2cc(N3CCOC[C@H]3C)nc3c2c(nn3-c2cc[nH]n2)CCN1S(=O)(=O)C1CC1F (single isomer, unassigned) [Compound 151A]",–,–
< 10,–,< 100,"CC1c2cc(N3CCOC[C@H]3C)nc3c2c(nn3-c2cc[nH]n2)CCN1S(=O)(=O)C1CC1F (single isomer, unassigned) [Compound 151B]",–,–
10 to 100,–,100 to 1000,"CC1c2cc(N3CCOC[C@H]3C)nc3c2c(nn3-c2cc[nH]n2)CCN1S(=O)(=O)C1CC1F (single isomer, unassigned) [Compound 151C]",–,–
100 to 1000,–,100 to 1000,"CC1c2cc(N3CCOC[C@H]3C)nc3c2c(nn3-c2cc[nH]n2)CCN1S(=O)(=O)C1CC1F (single isomer, unassigned) [Compound 151D]",–,–
< 10,< 100,–,"CN=S(C)(=O)N1CCc2nn(-c3cc[nH]n3)c3nc(N4CCOC[C@H]4C)cc(c23)C1C (single isomer, unassigned) [Compound 152A]",–,–
10 to 100,–,100 to 1000,"CN=S(C)(=O)N1CCc2nn(-c3cc[nH]n3)c3nc(N4CCOC[C@H]4C)cc(c23)C1C (single isomer, unassigned) [Compound 152B]",–,–
